Assay results published in US20110257013A1, “METHOD FOR CONTROLLING FLOWERING TIME OF PLANT” (SUMITOMO CHEMICAL COMPANY, LIMITED, priority 2008, published 2011).

Test system: recombinant Arabidopsis thaliana
Assay: Flowering induction in recombinant Arabidopsis thaliana
Assay type: in vivo
Conditions: Arabidopsis with vector (e); 50 μM CuSO4 medium for six hours; observed five days after treatment; compared to non-inducible group
Description: The vector (e) prepared in Example 1 was introduced into Agrobacterium (Agrobacterium tumefaciens strain C58C1). The resulting Agrobacterium was cultured in a LB agar medium (0.5% yeast extract, 1.0% bactotrypton, 0.5% saline, 1% agar) containing 50 mg/L kanamycin, 100 mg/L ampicillin, and 100 mg/L rifampicin, and a drug-resistant colony was selected to obtain recombinant Agrobacterium. Arabidopsis (Arabidopsis thaliana ecotype Columbia) was infected by the obtained recombinant Agrobacterium according to the method described in Model Plant Laboratory Manual (edited by Iwabuchi Masaki et al, 2000, Springer-Verlag Tokyo Co., Ltd., ISBN 4-431-70881-2 C3045) to introduce genes. After T1 seeds collected from the Arabidopsis subjected to gene introduction, the seeds were plated and grown on a modified MS agar medium (MS inorganic salts, B5 vitamin, 1% sucrose, 0.8% agar) containing 20 mg/L of Benlate, 200 mg/L of Claforan, and 25 mg/L kanamycin to select a plant individual resistant to kanamycin. The selected plant individual was transplanted to a pot in which culture soil was previously placed, and grown in an artificial weather chamber to obtain T2 seeds. […]

## O=S(=O)([O-])[O-].[Cu+2] [CuSO4]
  flowering time: flowering was induced earlier
